Measured values from ChEMBL document CHEMBL1201862, “PubChem BioAssay data set” (2004).
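Five concentrations, 48 hours, 96-well plates. GI50 marks 50% less growth.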 Calls of active or inactive are those of the source. No stated cut-off is given here; in the data, active = GI50 up to about 1.1 µM and inactive = higher.

What was measured:
Assay in all cases: growth of human tumour cells (NCI), 48 h
[1] = system: NCI/ADR-RES
[2] = system: UO-31
[3] = system: SW-620
[4] = system: HOP-62
[5] = system: HCC 2998
[6] = system: HCT-116
[7] = system: HCT-15
[8] = system: Hs-578T
[9] = system: MDA-MB-231
[10] = system: TK-10
[11] = system: IGROV-1
[12] = system: SNB-19
[13] = system: SN12C
[14] = system: OVCAR-4
[15] = system: A549
[16] = system: EKVX
[17] = system: OVCAR-8
[18] = system: SK-MEL-28
[19] = system: SF-295
[20] = system: T47D
[21] = system: SK-OV-3
[22] = system: NCI-H226
[23] = system: HT-29
[24] = system: MDA-N
[25] = system: CAKI-1
[26] = system: UACC-257
[27] = system: HOP-92
[28] = system: Malme-3M
[29] = system: OVCAR-5
[30] = system: MDA-MB-435
[31] = system: SF-539
[32] = system: COLO 205
[33] = system: SK-MEL-2
[34] = system: SNB-75
[35] = system: SR
[36] = system: NCI-H23
[37] = system: MCF7
[38] = system: U-251
[39] = system: KM12
[40] = system: NCI-H522
[41] = system: A498
[42] = system: ACHN
[43] = system: K562
[44] = system: SF-268
[45] = system: UACC-62
[46] = system: RPMI-8226
[47] = system: LOX IMVI
[48] = system: M14
[49] = system: 786-0
[50] = system: RXF 393
[51] = system: SK-MEL-5
[52] = system: BT-549
[53] = system: CCRF-CEM
[54] = system: HL-60
[55] = system: MOLT-4
[56] = system: NCI-H460

`C/C(=N\Nc1nc2ccccc2n1C)c1ccncn1` was tested, and the GI50 [1] was 0.0395 µM (active), the GI50 [2] was 0.0391 µM (active) and the GI50 [3] was < 0.018 µM (active). The GI50 [4] was 5.38 µM (inactive), the GI50 [5] was 3.39 µM (inactive) and the GI50 [6] was < 0.01 µM (active). For the same molecule, the GI50 [7] was under 0.0186 µM, the GI50 [8] was 3.1 µM (inactive) and the GI50 [9] was 0.0389 µM (active). For the same molecule, the GI50 [10] was 1.52 µM (inactive), the GI50 [11] was 0.0233 µM (active) and the GI50 [12] was 0.65 µM (active). The GI50 [13] was 0.0243 µM (active), the GI50 [14] was 0.17 µM (active) and the GI50 [15] was 0.128 µM (active). For the same molecule, the GI50 [16] was < 0.02 µM (active), the GI50 [17] was < 0.0238 µM (active) and the GI50 [18] was 0.0378 µM (active). The GI50 [19] was 0.476 µM (active), the GI50 [20] was < 0.0501 µM (active) and the GI50 [21] was 0.182 µM (active). For the same molecule, the GI50 [22] was 0.29 µM (active), the GI50 [23] was < 0.0259 µM (active) and the GI50 [24] was 0.929 µM (active). For the same molecule, the GI50 [25] was < 0.01 µM (active), the GI50 [26] was 0.0382 µM (active) and the GI50 [27] was 0.129 µM (active). The GI50 [28] was < 0.0385 µM (active), the GI50 [29] was 1.52 µM (inactive) and the GI50 [30] was 0.362 µM (active). For the same molecule, the GI50 [31] was 0.313 µM (active), the GI50 [32] was < 0.01 µM (active) and the GI50 [33] was 2.52 µM (inactive). The GI50 [34] was 1.87 µM (inactive), the GI50 [35] was 0.082 µM (active) and the GI50 [36] was 0.0402 µM (active). For the same molecule, the GI50 [37] was 0.0206 µM (active), the GI50 [38] was 0.0904 µM (active) and the GI50 [39] was 0.265 µM (active). For the same molecule, the GI50 [40] was 0.0393 µM (active), the GI50 [41] was 0.14 µM (active) and the GI50 [42] was 0.0266 µM (active). For the same molecule, the GI50 [43] was < 0.0152 µM (active), the GI50 [44] was 0.0762 µM (active) and the GI50 [45] was 0.125 µM (active). The GI50 [46] was 0.0202 µM (active), the GI50 [47] was 0.0845 µM (active) and the GI50 [48] was 0.0408 µM (active). For the same molecule, the GI50 [49] was 0.08 µM (active), the GI50 [50] was 1.55 µM (inactive) and the GI50 [51] was 0.102 µM (active). For the same molecule, the GI50 [52] was 5.6 µM (inactive), the GI50 [53] was 0.0618 µM (active) and the GI50 [54] was < 0.01 µM (active). For the same molecule, the GI50 [55] was < 0.01 µM (active) and the GI50 [56] was 0.23 µM (active).
